This is an account of results in patent US5912259A, “Method for treating and preventing neurodegenerative disorders by administering a thiazolidinone” (Warner-Lambert Company, priority 1998, dated 1999).

One data set has as its system iNOS, BV-2 microglia. Description: iNOS expression in LPS-activated BV-2 microglia (Western blot). The format is cell-based. Here is the method: BV-2 microglia were grown in 6-well tissue culture plates in DMEM/F12 media supplemented with 10% fetal calf serum. Prior to activation, cells were given fresh media containing various amounts of thiazolidinone. One hour after drug treatment, microglia were activated with lipopolysaccharide (LPS, 4 μg/mL) and placed in an incubator at 37° C. in an atmosphere containing 5% CO2. After 16 hours, cultures were evaluated for inducible nitric oxide synthase (iNOS) activity and expression. iNOS activity was determined using the Griess reaction. Cell-free culture media was mixed with an equal volume of Griess reagent (one volume of 1.0% sulfanilamide in 5% phosphoric acid mixed with one volume of 0.1% naphthylenediamine dihydrochloride in water) and incubated for 5 minutes at room temperature. Absorbance was measured at 560 nm and the concentration within a sample was determined using sodium nitrite as standard. iNOS expression was evaluated by extracting cellular protein and performing Western blot analysis using a monoclonal antibody specific for iNOS.
Background: Immunoblotting shows a protein as a band on a membrane.

The test system of data set [1] is canine leptomeningeal smooth muscle cells. Kind of data set: Amyloid β-peptide-induced cytotoxicity in canine leptomeningeal smooth muscle cells. The format is cell-based, dog. From the text:
Canine smooth muscle cells were isolated from freshly obtained old dog meninges. […] Old dogs have an angiopathy resembling the human condition. Smooth muscle cells are the site of cerebral vessel myopathy occurring in the Dutch form of Alzheimer's disease. The compromise of these cells ultimately leads to a cerebrovascular accident and the death of some humans.
Cells from the meninges were dissociated and kept in culture in 10% fetal calf serum and Dulbecco's minimal essential media with antibiotics for about 1 week on tissue culture plates before use in biochemical studies or transferal to uncoated microscope slides for morphological studies. These smooth muscle cells represent brain blood vessel cells and they can be passaged several times. For inducing cytotoxicity, the cells were treated, in serum-free media, with 10 to 20 μM of amyloid β-peptide that was 42 amino acids long. This peptide corresponds to the human β-peptide sequence. The peptide was dissolved in water immediately before use. This small amount of protein is believed to approximate the concentration of protein observed in postmortem samples in the brains of people who died with Alzheimer's dementia.
Percentages were determined by counting normal and apoptotic nuclei in three fields with five independent measures in a fluorescence microscope.

Data set [2] in a line: 13-week toxicity study in monkeys. In kind it is in vivo, monkey. On the procedure:
(§1) As noted above, the thiazolidinone is additionally well-suited to treating elderly patients because of its long duration of action and its substantial lack of undesirable side effects. Toxicologic properties of the thiazolidinone were evaluated in single-dose oral and intravenous (IV) studies in mice and rats and multidose oral studies in rats and dogs. The thiazolidinone was tested in dogs and monkeys in escalating-dose oral toxicity to determine the most sensitive nonrodent species. […] The initial 13-week dog study was repeated to evaluate the reproducibility of the perivascular effects. Dose range-finding studies were performed in pregnant rats and rabbits, and genotoxic potential was assessed in vitro and in vivo. […] Based on exposure at the no-effect dose in definitive studies, the rat appears to be the most sensitive species followed by the dog and the monkey, albeit with minor differences in exposure between the species.

Data set [3] is described as follows: Toxicology studies in dogs. The format is in vivo, dog. On the procedure:
as §1

For `CC(C)(C)c1cc(/C=C2\SC(N)=NC2=O)cc(C(C)(C)C)c1O` [CI-1004, (Z)-5-[[3,5-bis(1,1-dimethylethyl)-4-hydroxyphenyl]methylene]-2-imino-4-thiazolidinone methanesulfonate], the iNOS protein expression entry with iNOS, BV-2 microglia is recorded as “decrease in protein expression”. The “amyloid accumulation over the cells” value in data set [1] is given as “amyloid accumulation over the cells was reduced”. The “cell death induced by amyloid” value in data set [1] (20-30 μM in 5% DMSO/water v/v) is listed as “significantly decrease the cell death induced by the amyloid”. The ileo-cecal erosions result in data set [2] (13-week study, not attributed to drug) is given as “Superficial ileo-cecal erosions identified microscopically were observed”. Moreover, the NSAID-related changes result in data set [2] (13 weeks) is recorded as “No typical NSAID-related changes were observed”. The hepatic enzyme induction entry in data set [3] is “hepatic enzyme induction which was not associated with overt organ toxicity”. In addition, the gastrointestinal effects result in data set [3] (definitive 13-week studies) is listed as “gastrointestinal effects”. Further, in data set [3] (initial 13-week study), the “perivascular mononuclear infiltrates in brain” value is reported as “perivascular mononuclear infiltrates in brain were observed”.
